Data: US20250171437A1 (Agios Pharmaceuticals,Inc., priority 2022, published 2025)

The compounds below were run against T1, human PAH with the R408W mutation (A375 R408W cells) (Homo sapiens, UniProt P00439, R408W) (assay: Cell Based Phenylalanine Flux Assay). Settings: A375 R408W cells; 24 hrs with compound, then 20 μM sepiapterin and 800 μM 13C9,15N-Phenylalanine for 4 hours; 13C-Tyrosine by LC-MS; average where tested multiple times.
T1 construct: expressed in transfected cells
T1 sequence (P00439 1-452 R408W): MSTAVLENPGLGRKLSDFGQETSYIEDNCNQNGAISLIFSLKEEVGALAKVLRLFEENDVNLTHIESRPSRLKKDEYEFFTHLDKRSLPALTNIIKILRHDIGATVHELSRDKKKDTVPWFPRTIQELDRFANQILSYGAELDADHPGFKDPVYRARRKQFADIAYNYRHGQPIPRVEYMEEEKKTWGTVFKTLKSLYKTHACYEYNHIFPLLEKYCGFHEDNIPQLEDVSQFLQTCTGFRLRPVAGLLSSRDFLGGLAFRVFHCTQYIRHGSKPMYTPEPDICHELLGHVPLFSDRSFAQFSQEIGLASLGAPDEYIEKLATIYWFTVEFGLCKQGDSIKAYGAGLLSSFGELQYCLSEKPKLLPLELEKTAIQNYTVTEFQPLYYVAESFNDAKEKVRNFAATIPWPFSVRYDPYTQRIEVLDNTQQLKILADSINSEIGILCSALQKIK
Procedure: Cells expressing R408W PAH were made by transducing A375 cells with lentivirus encoding human PAH with the R408W mutation in pLVX-Puro, then selecting with puromycin until stable cell lines were generated. A375 R408W cells were seeded into 96 well plates in DMEM+10% FBS at a density of 40,000 cells/well one hour prior to compound addition. Compounds were resuspended in DMSO, and 2-fold serial dilutions were performed to generate a 10-point dose curve. Compounds were added to plated cells in a total volume of 100 μl, and a final DMSO concentration of 0.5%. Each compound was tested in duplicate. Following compound addition, cells were placed in a 5% CO2, 37° C. tissue culture incubator for 24 hrs. After the incubation period, 20 μM sepiapterin and 800 μM 13C9,15N-Phenylalanine were added. After 4 hours, cell media was removed. An aliquot of 10 μl of cell media was combined with 200 μl of extraction buffer (80% acetonitrile/20% H2O) for each well. Determination of ^13C-Tyrosine concentration was assessed by liquid chromatography mass spectrometry.
Specific compounds disclosed herein were tested in the foregoing assay and they were determined to have an AC50 according to the following scores: (A) less than or equal to 0.500 μM, (B) greater than 0.500 and less than […], (C) greater than or equal to 1.000 and less than 5.000 μM, (D) greater than or equal to 5.000 μM, (E) no fit, and (NT) not tested, as shown below. Where a compound was tested multiple times, the average value of the tests is reported.

Compared with `Cn1cc(-c2nnc(C(=O)N3CCc4[nH]cnc4[C@H]3c3nc4ccc(F)c(F)c4o3)o2)cn1` [Example 515, (S)-(4-(6,7-difluorobenzo[d]oxazol-2-yl)-6,7-dihydro-1H-imidazo[4,5-c]pyridin-5(4H)-yl)(5-(1-methyl-1H-pyrazol-4-yl)-1,3,4-oxadiazol-2-yl)methanone], `Cn1cc(-c2nnc(C(=O)N3CCc4[nH]cnc4[C@H]3c3nc4c(F)c(F)ccc4o3)o2)cn1` [Example 645, (S)-(4-(4,5-difluorobenzo[d]oxazol-2-yl)-6,7-dihydro-1H-imidazo[4,5-c]pyridin-5(4H)-yl)(5-(1-methyl-1H-pyrazol-4-yl)-1,3,4-oxadiazol-2-yl)methanone] is higher in AC50: 500 to 1000 nM for the first, 1000 to 5000 nM for the second.

`O=C(c1nnc(-c2cnn(C(F)F)c2)o1)N1CCc2[nH]cnc2[C@H]1c1nc2cccc(F)c2o1` [Example 875, (S)-(5-(1-(difluoromethyl)-1H-pyrazol-4-yl)-1,3,4-oxadiazol-2-yl)(4-(7-fluorobenzo[d]oxazol-2-yl)-6,7-dihydro-1H-imidazo[4,5-c]pyridin-5(4H)-yl)methanone] and `CC(C)(O)c1nc(C(F)F)c(C(=O)N2CCc3[nH]cnc3[C@H]2c2nc3cccc(F)c3o2)o1` [Example 193, (S)-(4-(difluoromethyl)-2-(2-hydroxypropan-2-yl)oxazol-5-yl)(4-(7-fluorobenzo[d]oxazol-2-yl)-6,7-dihydro-1H-imidazo[4,5-c]pyridin-5(4H)-yl)methanone] cannot be ordered by AC50: ≤ 500 nM for the first, ≤ 500 nM for the second.

First: CC(C)(O)c1nc(C(F)F)c(C(=O)N2CCc3[nH]cnc3[C@@H]2c2nc3cc(C(F)(F)F)ccc3o2)o1 [Example 328, (R)-(4-(difluoromethyl)-2-(2-hydroxypropan-2-yl)oxazol-5-yl)(4-(5-(trifluoromethyl)benzo[d]oxazol-2-yl)-6,7-dihydro-1H-imidazo[4,5-c]pyridin-5(4H)-yl)methanone]
Second: CNC(C)(C)c1nc(C(F)F)c(C(=O)N2CCc3[nH]cnc3[C@@H]2c2nc3cc(F)ccc3o2)o1 [Example 222, (R)-(4-(difluoromethyl)-2-(2-(methylamino)propan-2-yl)oxazol-5-yl)(4-(5-fluorobenzo[d]oxazol-2-yl)-6,7-dihydro-1H-imidazo[4,5-c]pyridin-5(4H)-yl)methanone]
The AC50 of the first is lower: ≤ 500 nM for the first, 1000 to 5000 nM for the second.

`O=C(c1nnc(-c2ccccn2)o1)N1CCc2[nH]cnc2[C@H]1c1nc2c(F)c(F)ccc2o1` [Example 629, (S)-(4-(4,5-difluorobenzo[d]oxazol-2-yl)-6,7-dihydro-1H-imidazo[4,5-c]pyridin-5(4H)-yl)(5-(pyridin-2-yl)-1,3,4-oxadiazol-2-yl)methanone] and `Cn1ccc(-c2nnc(C(=O)N3CCc4[nH]cnc4[C@H]3c3nc4ccccc4o3)o2)n1` [Example 843, (S)-(4-(benzo[d]oxazol-2-yl)-6,7-dihydro-1H-imidazo[4,5-c]pyridin-5(4H)-yl)(5-(1-methyl-1H-pyrazol-3-yl)-1,3,4-oxadiazol-2-yl)methanone] cannot be ordered by AC50: 500 to 1000 nM for the first, ≤ 500 nM for the second.

`CC(C)(O)c1nc(C(F)F)c(C(=O)N2CCc3[nH]cnc3[C@@H]2c2nc3cc(Cl)cc(F)c3o2)o1` [Example 606, (R)-(4-(5-chloro-7-fluorobenzo[d]oxazol-2-yl)-6,7-dihydro-1H-imidazo[4,5-c]pyridin-5(4H)-yl)(4-(difluoromethyl)-2-(2-hydroxypropan-2-yl)oxazol-5-yl)methanone] and `COc1cc(F)cc2nc([C@@H]3c4nc[nH]c4CCN3C(=O)c3oc(C(C)(C)O)nc3C(F)F)oc12` [Example 715, (S)-(4-(difluoromethyl)-2-(2-hydroxypropan-2-yl)oxazol-5-yl)(4-(5-fluoro-7-methoxybenzo[d]oxazol-2-yl)-6,7-dihydro-1H-imidazo[4,5-c]pyridin-5(4H)-yl)methanone] cannot be ordered by AC50: ≤ 500 nM for the first, ≤ 500 nM for the second.

First: CN1CCN(c2cn3ncc(C(=O)N4CCc5[nH]cnc5[C@H]4c4nc5cc(F)ccc5o4)c3cc2Cl)CC1 [Example 181, (S)-(5-chloro-6-(4-methylpiperazin-1-yl)pyrazolo[1,5-a]pyridin-3-yl)(4-(5-fluorobenzo[d]oxazol-2-yl)-6,7-dihydro-1H-imidazo[4,5-c]pyridin-5(4H)-yl)methanone]
Second: O=C(c1cnn2cc(-c3ccccn3)ccc12)N1CCc2[nH]cnc2[C@@H]1c1nc2c(F)cccc2o1 [Example 544, (R)-(4-(4-fluorobenzo[d]oxazol-2-yl)-6,7-dihydro-1H-imidazo[4,5-c]pyridin-5(4H)-yl)(6-(pyridin-2-yl)pyrazolo[1,5-a]pyridin-3-yl)methanone]
The AC50 of the first is lower: ≤ 500 nM for the first, 1000 to 5000 nM for the second.

First: O=C(c1ocnc1C(F)F)N1CCc2[nH]cnc2[C@@H]1c1nc2cccc(C(F)(F)F)c2o1 [Example 494, (R)-(4-(difluoromethyl)oxazol-5-yl)(4-(7-(trifluoromethyl)benzo[d]oxazol-2-yl)-6,7-dihydro-1H-imidazo[4,5-c]pyridin-5(4H)-yl)methanone]
Second: Cc1cccc2oc([C@H]3c4nc[nH]c4CCN3C(=O)c3ocnc3C(F)F)nc12 [Example 381, (R)-(4-(difluoromethyl)oxazol-5-yl)(4-(4-methylbenzo[d]oxazol-2-yl)-6,7-dihydro-1H-imidazo[4,5-c]pyridin-5(4H)-yl)methanone]
The AC50 of the first is lower: ≤ 500 nM for the first, 1000 to 5000 nM for the second.

Compared with `C[C@@H](O)c1nc(C(F)F)c(C(=O)N2CCc3[nH]cnc3[C@@H]2c2nc3ccc(F)cc3o2)o1` [Example 240, (4-(difluoromethyl)-2-((R)-1-hydroxyethyl)oxazol-5-yl)((R)-4-(6-fluorobenzo[d]oxazol-2-yl)-6,7-dihydro-1H-imidazo[4,5-c]pyridin-5(4H)-yl)methanone], `Cc1ccc2oc([C@@H]3c4nc[nH]c4CCN3C(=O)c3ocnc3C(F)F)nc2c1` [Example 137, (S)-(4-(difluoromethyl)oxazol-5-yl)(4-(5-methylbenzo[d]oxazol-2-yl)-6,7-dihydro-1H-imidazo[4,5-c]pyridin-5(4H)-yl)methanone] is lower in AC50: 1000 to 5000 nM for the first, ≤ 500 nM for the second.

First: Cc1cccc2oc([C@@H]3c4nc[nH]c4CCN3C(=O)c3ccnn3C(F)F)nc12 [Example 449, (S)-(1-(difluoromethyl)-1H-pyrazol-5-yl)(4-(4-methylbenzo[d]oxazol-2-yl)-6,7-dihydro-1H-imidazo[4,5-c]pyridin-5(4H)-yl)methanone]
Second: O=C(c1ccnn1C(F)(F)F)N1CCc2[nH]cnc2[C@@H]1c1nc2c(F)cccc2o1 [Example 294, (R)-(4-(4-fluorobenzo[d]oxazol-2-yl)-6,7-dihydro-1H-imidazo[4,5-c]pyridin-5(4H)-yl)(1-(trifluoromethyl)-1H-pyrazol-5-yl)methanone]
The AC50 of the first is lower: ≤ 500 nM for the first, 1000 to 5000 nM for the second.

`COc1cc(F)cc2nc([C@H]3c4nc[nH]c4CCN3C(=O)c3oc(C(C)(C)O)nc3C(F)F)oc12` [Example 716, (R)-(4-(difluoromethyl)-2-(2-hydroxypropan-2-yl)oxazol-5-yl)(4-(5-fluoro-7-methoxybenzo[d]oxazol-2-yl)-6,7-dihydro-1H-imidazo[4,5-c]pyridin-5(4H)-yl)methanone] showed an AC50 of 1000 to 5000 nM.

Same assay, conditions: A375 cells expressing R408W PAH; 24 hrs with compound, then 20 μM sepiapterin and 800 μM 13C9,15N-Phenylalanine for 4 hours; 13C-Tyrosine by LC-MS; average where tested multiple times

`Cc1cccc2nc(C3c4nc[nH]c4CCN3C(=O)c3ccn(-c4ccccn4)n3)oc12` (stereo not shown) and `O=C(C1CN(c2ccccn2)C1)N1CCc2[nH]cnc2C1c1nc2cc(F)ccc2o1` (stereo not shown) cannot be ordered by AC50: ≥ 5000 nM for the first, ≥ 5000 nM for the second.

`O=C(c1ccnn1C(F)F)N1CCc2[nH]cnc2C1c1nc2c(F)c(F)ccc2o1` (stereo not shown) and `O=C(c1ccn(CC(F)F)n1)N1CCc2[nH]cnc2C1c1nc2c(F)cccc2o1` (stereo not shown) fall in the same range of AC50: 1000 to 5000 nM for the first, 1000 to 5000 nM for the second.

`COC(=O)Nc1ccc2c(C(=O)N3CCc4[nH]cnc4C3c3nc4cc(F)ccc4o3)cnn2c1` (stereo not shown) and `COCc1ncc(C(=O)N2CCc3[nH]cnc3C2c2nc3cc(F)ccc3o2)o1` (stereo not shown) cannot be ordered by AC50: ≥ 5000 nM for the first, ≥ 5000 nM for the second.

`O=C(c1nc(C(F)(F)F)co1)N1CCc2nc[nH]c2C1c1nc2cc(F)ccc2o1` (stereo not shown) and `O=C(c1nnc(-c2cnn(CC(F)(F)F)c2)o1)N1CCc2[nH]cnc2C1c1nc2cc(F)ccc2o1` (stereo not shown) fall in the same range of AC50: 1000 to 5000 nM for the first, 1000 to 5000 nM for the second.

`Cn1cnc(-c2nnc(C(=O)N3CCc4[nH]cnc4C3c3nc4cc(F)ccc4o3)o2)c1` (stereo not shown) and `O=C(c1nnc(-c2ccn[nH]2)o1)N1CCc2[nH]cnc2C1c1nc2ccc(F)cc2o1` (stereo not shown) fall in the same range of AC50: 1000 to 5000 nM for the first, 1000 to 5000 nM for the second.

`Cc1nc(CN(C)C)oc1C(=O)N1CCc2[nH]cnc2C1c1nc2cc(F)ccc2o1` (stereo not shown) and `Cc1ccc2nc(C3c4nc[nH]c4CCN3C(=O)Cc3nncs3)oc2c1` (stereo not shown) fall in the same range of AC50: 1000 to 5000 nM for the first, 1000 to 5000 nM for the second.
